Patent US20170190671A1, “BIS(ARYL)CATECHOL DERIVATIVES AS HERBICIDES” (E I DU PONT DE NEMOURS AND COMPANY, priority 2014, published 2017)

Key:
Assay in all cases: Test C preemergence
Assay type in all cases: in vivo
[1] = test system: Italian ryegrass (Lolium multiflorum); conditions: Lolium multiflorum, pre-emergence, 336 h, scale 0 to 100, read-out: Plant response rating, Ryegrass, Italian
In short: (§1)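 Greenhouse test; preemergence to seeds in loam/sand soil, or postemergence spray to 2-18 cm, 1- to 4-leaf plants in peat/vermiculite medium; compound in non-phytotoxic solvent plus surfactant. Visual rating vs controls at 13-15 d, 0 = no effect, 100 = complete control.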

[2] = test system: barnyardgrass (Echinochloa crus-galli); conditions: Echinochloa crus-galli, pre-emergence, read-out: Plant response rating, Barnyardgrass
In short: as §1

corn (Zea mays) = conditions: Zea mays, pre-emergence, 336 h, scale 0 to 100
In short: as §1

[3] = test system: galium (catchweed bedstraw, Galium aparine); conditions: Galium, pre-emergence, 336 h, scale 0 to 100, read-out: Plant response rating, Galium
In short: as §1

[4] = test system: giant foxtail (Setaria faberii); conditions: Setaria faberi, pre-emergence, 336 h, scale 0 to 100, read-out: Plant response rating, Foxtail, Giant
In short: as §1

[5] = test system: johnsongrass (Sorghum halepense); conditions: Sorghum halepense, pre-emergence, 336 h, scale 0 to 100, read-out: Plant response rating, Johnsongrass
In short: as §1

[6] = test system: lambsquarters (Chenopodium album); conditions: Chenopodium album, pre-emergence, 336 h, scale 0 to 100, read-out: Plant response rating, Lambsquarters
In short: as §1

[7] = test system: large (Lg) crabgrass (Digitaria sanguinalis); conditions: Digitaria sanguinalis, pre-emergence, 336 h, scale 0 to 100, read-out: Plant response rating, Crabgrass, Large
In short: as §1

[8] = test system: morningglory (Ipomoea coccinea); conditions: Ipomoea, pre-emergence, 336 h, scale 0 to 100, read-out: Plant response rating, Morningglory
In short: as §1

[9] = test system: pigweed (Amaranthus retroflexus); conditions: Amaranthus retroflexus, pre-emergence, 336 h, scale 0 to 100, read-out: Plant response rating, Pigweed
In short: as §1

[10] = test system: ragweed (common ragweed, Ambrosia elatior); conditions: Ambrosia artemisiifolia, pre-emergence, 336 h, scale 0 to 100, read-out: Plant response rating, Ragweed
In short: as §1

soybean (Glycine max) = conditions: Glycine max, pre-emergence, scale 0 to 100, read-out: Plant response rating, Soybean
In short: as §1

[11] = test system: velvetleaf (Abutilon theophrasti); conditions: Abutilon theophrasti, pre-emergence, scale 0 to 100, read-out: Plant response rating, Velvetleaf
In short: as §1

[12] = test system: waterhemp (common waterhemp, Amaranthus rudis); conditions: Amaranthus tuberculatus, pre-emergence, scale 0 to 100, read-out: Plant response rating, Waterhemp
In short: as §1

[13] = test system: winter wheat (Triticum aestivum); conditions: Triticum aestivum, pre-emergence, 336 h, scale 0 to 100, read-out: Plant response rating, Wheat
In short: as §1

Clc1cnc(Oc2cccc(Br)c2Oc2ncc(Cl)cn2)nc1 [Compound 19, 2,2′-[[3-bromo-1,2-phenylene]bis(oxy)]bis[5-chloropyrimidine]] was tested, and the pest or weed control at 31 g/ha ([1]; 31 g ai/ha, preemergence) was 50%, the pest or weed control at 62 g/ha ([1]; 62 g ai/ha, preemergence) was 70% and the pest or weed control at 125 g/ha ([1]; 125 g ai/ha, preemergence) was 90%. The pest or weed control at 16 g/ha ([1]; Preemergence, 16 g ai/ha) was 5%, the pest or weed control at 31 g/ha ([2]; 31 g ai/ha, preemergence, scale 0 to 100) was 55% and the pest or weed control at 62 g/ha ([2]; 62 g ai/ha, preemergence, scale 0 to 100) was 100%. The pest or weed control at 125 g/ha ([2]; 125 g ai/ha, preemergence, scale 0 to 100) was 100%, the pest or weed control at 16 g/ha ([2]; Preemergence, 16 g ai/ha, scale 0 to 100 (0 no effect, 100 complete control)) was 15% and the Corn plant response rating (crop injury, 0 = no effect, 100 = complete kill) at 31 g/ha (corn (Zea mays); 31 g ai/ha, preemergence) was 25%. For the same compound, the Corn plant response rating (crop injury, 0 = no effect, 100 = complete kill) at 62 g/ha (corn (Zea mays); 62 g ai/ha, preemergence) was 80%, the Corn plant response rating (crop injury, 0 = no effect, 100 = complete kill) at 125 g/ha (corn (Zea mays); 125 g ai/ha, preemergence) was 90% and the Corn plant response rating (crop injury, 0 = no effect, 100 = complete kill) at 16 g/ha (corn (Zea mays); Preemergence, 16 g ai/ha) was 5%. For the same compound, the pest or weed control at 31 g/ha ([3]; 31 g ai/ha, preemergence) was 100%, the pest or weed control at 62 g/ha ([3]; 62 g ai/ha, preemergence) was 100% and the pest or weed control at 125 g/ha ([3]; 125 g ai/ha, preemergence) was 100%. The pest or weed control at 16 g/ha ([3]; Preemergence, 16 g ai/ha) was 85%, the pest or weed control at 31 g/ha ([4]; 31 g ai/ha, preemergence) was 100% and the pest or weed control at 62 g/ha ([4]; 62 g ai/ha, preemergence) was 100%. The pest or weed control at 125 g/ha ([4]; 125 g ai/ha, preemergence) was 100%, the pest or weed control at 16 g/ha ([4]; Preemergence, 16 g ai/ha) was 60% and the pest or weed control at 31 g/ha ([5]; 31 g ai/ha, preemergence) was 50%. It also gave a pest or weed control at 62 g/ha ([5]; 62 g ai/ha, preemergence) of 85%, a pest or weed control at 125 g/ha ([5]; 125 g ai/ha, preemergence) of 98% and a pest or weed control at 16 g/ha ([5]; Preemergence, 16 g ai/ha) of 35%. The pest or weed control at 31 g/ha ([6]; 31 g ai/ha, preemergence) was 100%, the pest or weed control at 62 g/ha ([6]; 62 g ai/ha, preemergence) was 100% and the pest or weed control at 125 g/ha ([6]; 125 g ai/ha, preemergence) was 100%. For the same compound, the pest or weed control at 16 g/ha ([6]; Preemergence, 16 g ai/ha) was 98%, the pest or weed control at 31 g/ha ([7]; 31 g ai/ha, preemergence) was 100% and the pest or weed control at 62 g/ha ([7]; 62 g ai/ha, preemergence) was 100%. The pest or weed control at 125 g/ha ([7]; 125 g ai/ha, preemergence) was 100%, the pest or weed control at 16 g/ha ([7]; Preemergence, 16 g ai/ha) was 98% and the pest or weed control at 31 g/ha ([8]; 31 g ai/ha, preemergence) was 45%. It also gave a pest or weed control at 62 g/ha ([8]; 62 g ai/ha, preemergence) of 90%, a pest or weed control at 125 g/ha ([8]; 125 g ai/ha, preemergence) of 100% and a pest or weed control at 16 g/ha ([8]; Preemergence, 16 g ai/ha) of 5%. The pest or weed control at 31 g/ha ([9]; 31 g ai/ha, preemergence) was 100%, the pest or weed control at 62 g/ha ([9]; 62 g ai/ha, preemergence) was 100% and the pest or weed control at 125 g/ha ([9]; 125 g ai/ha, preemergence) was 100%. The pest or weed control at 16 g/ha ([9]; Preemergence, 16 g ai/ha) was 100%, the pest or weed control at 31 g/ha ([10]; 31 g ai/ha, preemergence) was 30% and the pest or weed control at 62 g/ha ([10]; 62 g ai/ha, preemergence) was 55%. The pest or weed control at 125 g/ha ([10]; 125 g ai/ha, preemergence) was 60%, the pest or weed control at 16 g/ha ([10]; Preemergence, 16 g ai/ha) was 0% and the plant injury at 31 g/ha (soybean (Glycine max); 31 g ai/ha, preemergence) was 50%. For the same compound, the plant injury at 62 g/ha (soybean (Glycine max); 62 g ai/ha, preemergence) was 90%, the plant injury at 125 g/ha (soybean (Glycine max); 125 g ai/ha, preemergence) was 80% and the plant injury at 16 g/ha (soybean (Glycine max); Preemergence, 16 g ai/ha) was 25%. It also gave a pest or weed control at 31 g/ha ([11]; 31 g ai/ha, preemergence) of 98%, a pest or weed control at 62 g/ha ([11]; 62 g ai/ha, preemergence) of 100% and a pest or weed control at 125 g/ha ([11]; 125 g ai/ha, preemergence) of 100%. The pest or weed control at 16 g/ha ([11]; Preemergence, 16 g ai/ha) was 60%, the pest or weed control at 31 g/ha ([12]; 31 g ai/ha, preemergence) was 100% and the pest or weed control at 62 g/ha ([12]; 62 g ai/ha, preemergence) was 100%. For the same compound, the pest or weed control at 125 g/ha ([12]; 125 g ai/ha, preemergence) was 100%, the pest or weed control at 16 g/ha ([12]; Preemergence, 16 g ai/ha) was 100% and the plant injury at 31 g/ha ([13]; 31 g ai/ha, preemergence) was 25%. For the same compound, the plant injury at 62 g/ha ([13]; 62 g ai/ha, preemergence) was 40%, the plant injury at 125 g/ha ([13]; 125 g ai/ha, preemergence) was 85% and the plant injury at 16 g/ha ([13]; Preemergence, 16 g ai/ha) was 0%.
